Experimental findings from patent publication EP4745134A1 (Jiangsu Yahong Meditech Co., Ltd., priority 2023, dated 2025) are described below.

PRMT5-MTA, sequence (O14744 whole entry): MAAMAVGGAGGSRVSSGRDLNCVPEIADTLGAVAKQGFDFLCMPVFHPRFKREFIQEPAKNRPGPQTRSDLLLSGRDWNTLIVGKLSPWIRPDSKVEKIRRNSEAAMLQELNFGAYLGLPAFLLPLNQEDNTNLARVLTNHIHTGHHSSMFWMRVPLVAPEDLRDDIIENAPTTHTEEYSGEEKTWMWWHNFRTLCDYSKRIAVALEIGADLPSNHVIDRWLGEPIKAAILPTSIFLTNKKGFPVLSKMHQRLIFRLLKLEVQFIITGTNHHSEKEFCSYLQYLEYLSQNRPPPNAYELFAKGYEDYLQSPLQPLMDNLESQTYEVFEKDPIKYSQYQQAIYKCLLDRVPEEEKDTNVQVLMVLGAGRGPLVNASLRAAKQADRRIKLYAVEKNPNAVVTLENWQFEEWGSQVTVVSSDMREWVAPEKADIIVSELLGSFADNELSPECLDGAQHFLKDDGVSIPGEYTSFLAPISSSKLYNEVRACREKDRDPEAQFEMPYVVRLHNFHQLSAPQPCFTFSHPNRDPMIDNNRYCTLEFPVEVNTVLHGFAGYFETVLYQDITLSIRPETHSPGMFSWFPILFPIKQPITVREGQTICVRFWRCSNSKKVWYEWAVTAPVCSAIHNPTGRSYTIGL
PRMT5-MTA, sequence (Q9BQA1 whole entry partner): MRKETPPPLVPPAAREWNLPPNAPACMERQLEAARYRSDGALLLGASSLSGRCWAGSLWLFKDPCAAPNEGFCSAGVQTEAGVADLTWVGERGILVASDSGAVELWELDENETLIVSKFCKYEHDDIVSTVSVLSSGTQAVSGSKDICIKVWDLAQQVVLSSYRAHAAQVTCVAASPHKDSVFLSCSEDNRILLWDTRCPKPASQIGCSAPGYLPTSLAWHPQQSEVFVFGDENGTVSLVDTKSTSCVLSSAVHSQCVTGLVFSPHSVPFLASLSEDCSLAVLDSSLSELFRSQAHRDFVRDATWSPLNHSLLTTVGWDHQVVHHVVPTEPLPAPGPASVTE

The first experiment relates to HCT116 MTAP KO cells. Put plainly: Inhibitory activity against cell proliferation (CellTiter Glo, 6 days), HCT116 MTAP KO. The class given is cell-based. Particulars: Homo sapiens, HCT-116, 144 h, HCT116 MTAP KO cells, 6 days, CellTiter Glo; read-out: HCT116 MTAP KO IC50. The method, then: HCT116-WT (ATCC, CCL-247) and HCT116 MTAP KO (Nanjing Cobioer, CBP75002) cells were seeded into white low-transparency sterile 96-well cell culture plates at a density of 250 cells per well respectively, and the culture medium was McCoy's 5A Medium+10% FBS. The plates were placed under the condition of 37°C and 5% CO2 to be cultured overnight. The cells were treated with 4-fold serially diluted compounds of 8 concentration points starting at an initial concentration of 10000 nM, and the last two columns were used as control wells to which only DMSO was added. The drug-treated cells were further cultured for 6 days. On day 7, CellTiter Glo® reagent was added at 50 uL per well, and after reaction under shaking for 10 minutes at room temperature, the chemiluminescence signals were detected for the well plates through the chemiluminescence detection method using a BIOTEK H1 multifunctional microplate-reader. The IC50 values for inhibition of the compounds on cell viability were calculated in X1fit 5.0 software. Table 2. IC50 values for inhibition of the compounds on HCT116 MTAP KO/WT cell growth
Regarding `CN(c1ncccn1)N(Cc1ccc(C(F)(F)F)cn1)C(=O)c1ccc2c(c1)nc(N)n2C` [Example 36, 2-amino-N',1-dimethyl-N'-(pyrimidin-2-yl)-N-((5-(trifluoromethyl)pyridin-2-yl)methyl)-1H-benzo[d]imidazole-5-carbohydrazide], the IC50 was above 10000 nM.

The next experiment has as its target PRMT5-MTA (Homo sapiens, UniProt O14744). Put plainly: Enzymatic inhibitory activity against PRMT5-MTA (AlphaScreen). The class given is biochemical. Particulars: read-out: IC50. On the procedure:
The AlphaScreen method was used to detect the enzymatic inhibitory activity of the compounds against PRMT5-MTA. 1 x Methyltransferase assay buffer IV (signalchem) was prepared as a solution for diluting each component for the enzymatic reaction. PRMT5/[…] protein of a final concentration of 1 nM, […] (sigma) of a final concentration of 1 uM and S-(5'-adenosine)-L-methionine chloride dihydrochloride (sigma) of a final concentration of 2.5 uM were mixed, then incubated for 30 minutes at room temperature, and transferred to an OptiPlate-384 well plate (PerkinElmer) at a volume of 6 uL per well, for which no PRMT5/[…] protein was added to the control wells. The test compound was 3-fold serially diluted into 10 concentrations, starting from a concentration of 1000 nM, and the series of diluted compounds were added to all wells except the control wells in the well plate using Tecan D300e. The well plate was subjected to centrifugation for 1 minute at 1000 rpm in a centrifuge, and then incubated for 15 minutes at 23°C. Histone H4 substrate of a final concentration of 5 nM was added to the well plate at 4 uL per well, centrifuged for 1 minute at 1000 rpm in a centrifuge, then placed in an incubator at 23°C and reacted for 45 minutes. Anti-histone H4 (symmetrical dimethyl R3) antibody (Abcam) was incubated with 50 ug/mL of AlphaScreen Protein A Acceptor beads (PerkinElmer) for 10 minutes at room temperature beforehand, and then added to the well plate at a volume of 10 uL per well. The mixture was reacted for 1 hour at room temperature. 50 Ug/mL of AlphaScreen Streptavidin Donor beads (PerkinElmer) was added at 10 uL per well, and reacted for 1 hour at room temperature. The signal values were detected for the well plate through the Alpha method using an Envision multifunctional microplate-reader, and the IC50 values for inhibition of the compounds on PRMT5/MET50 enzyme activity were calculated in Xlfit 5.0 software. Table 1. IC50 values for inhibition of the compounds on PRMT5+MTA enzyme activity
On to `Cc1cc2nc(N)c3cnn(C)c3c2cc1C(=O)N(C)N1CCc2ncccc21` [Compound 114, 4-amino-N-(2,3-dihydro-1H-pyrrolo[3,2-b]pyridin-1-yl)-N,1,7-trimethyl-1H-pyraz olo[4,3-c]quinoline-8-carboxamide], for which the concentration for half-maximal inhibition (IC50) was 4 nM.

For `Cc1cc2cc(C(=O)N(Cc3ccccn3)N(C)c3ncccn3)ccc2nc1N` [Example 9, 2-amino-N',3-dimethyl-N-(pyridin-2-ylmethyl)-N'-(pyrimidin-2-yl)quinoline-6-carbohydrazide], the IC50 worked out at 3.2 nM.

Consider `Nc1nc2ccc(C(=O)N(Cc3ccc(C(F)(F)F)cn3)N(c3ncccn3)C3CC3)cc2cc1CF` [Example 323, 2-amino-N'-cyclopropyl-3-(fluoromethyl)-N'-(pyrimidin-2-yl)-N-((5-(trifluoromethyl)pyridin-2-yl)methyl)quinoline-6-carbohydrazide], for which the IC50 turned out to be 7.1 nM.

For `Cc1cc2cc(C(=O)N(Cc3cnc(Br)cn3)N(C)c3ncccn3)ccc2nc1N` [Example 282, 2-amino-N-((5-bromopyrazin-2-yl)methyl)-N',3-dimethyl-N'-(pyrimidin-2-yl)quinoline-6-carbohydrazide], the half-inhibitory concentration (IC50) came out at 4.5 nM. As to `CCN(C(=O)c1ccc2nc(N)c3c(c2c1)COC3)N(C)c1ccc(C(F)(F)F)cc1` [Example 115, 4-amino-N-ethyl-N-methyl-N-(4-(trifluoromethyl)phenyl)-1,3-dihydrofuro[3,4-c]quinoline-8-carbohydrazide], the IC50 stood at 2 nM. Same read-out and setting: with `Cc1cc2nc(N)c3cnn(C)c3c2cc1C(=O)N1CC(C)CN1c1ncccc1C(F)(F)F` (stereo not drawn) [Example 399, (4-amino-1,7-dimethyl-1H-pyrazolo[4,3-c]quinolin-8-yl)(4-methyl-2-(3-(trifluoromethyl)pyridin-2-yl)pyrazolidin-1-yl)met hanone] the figure was 6.2 nM. Take `Cc1cc2nc(N)c3c(cnn3C)c2cc1C(=O)N(Cc1ccc(C(F)(F)F)cn1)N(C)c1ncccn1` [Example 81, 4-amino-N',3,7-trimethyl-N'-(pyrimidin-2-yl)-N-((5-(trifluoromethyl)pyridin-2-yl)methyl)-3H-pyrazolo[3,4-c]quinoline-8-carbohydrazide]: the IC50 was 5.8 nM. Turning to `Cc1cc2nc(N)c3cnn(C)c3c2cc1C(=O)N1CCCN1c1ccncc1` [Example 336, (4-amino-1,7-dimethyl-1H-pyrazolo[4,3-c]quinolin-8-yl)(2-(pyridin-4-yl)pyrazolidin-1-yl)methanone], the IC50 stood at 2.9 nM.

Take `CN(c1ncccn1)N(Cc1ccc(C(F)(F)F)cn1)C(=O)c1ccc2nc(N)c3c(c2c1)COC3` [Example 12, 4-amino-N'-methyl-N'-(pyrimidin-2-yl)-N-((5-(trifluoromethyl)pyridin-2-yl)methyl)-1,3-dihydrofuro[3,4-c]quinoline-8-car bohydrazide]: the IC50 was 7.8 nM. Consider `Cc1cc2nc(N)c3cnn(C)c3c2cc1C(=O)N1CC(C)CN1c1ncc(C#N)cc1F` (stereo not drawn) [Example 371, 6-(2-(4-amino-1,7-dimethyl-1H-pyrazolo [4,3-c]quinoline-8-formyl)-4-methylpyrazolidin-1-yl)-5-fluoronicotinonitrile], for which the IC50 came to 5.5 nM. `Cc1cc2nc(N)c3cnn(C)c3c2cc1C(=O)N1CC(C)CN1c1ccc(C(F)(F)F)cn1` (stereo not drawn) [Example 389, (4-amino-1,7-dimethyl-1H-pyrazolo[4,3-c]quinolin-8-yl)(4-methyl-2-(5-(trifluoromethyl)pyridin-2-yl)pyrazolidin-1-yl)met hanone]: the IC50 is 6.3 nM.

Regarding `Cc1cc2cc(C(=O)N(Cc3ccc(C(F)(F)F)cn3)N(C)c3ncc(S(C)(=O)=O)cn3)ccc2nc1N` [Example 96, 2-amino-N',3-dimethyl-N'-(5-(methylsulfonyl)pyrimidin-2-yl)-N-((5-(trifluoromethyl)pyridin-2-yl)methyl)quinoline-6-carbohydrazide], the IC50 was found to be 2.6 nM. As to `Cc1cc2cc(C(=O)N(Cc3ccc(P(C)(C)=O)cn3)N(C)c3ncccn3)ccc2nc1N` [Example 297, 2-amino-N-((5-(dimethylphosphoryl)pyridin-2-yl)methyl)-N',3-dimethyl-N'-(pyrimidin-2-yl)quinoline-6-carbohydrazide], the IC50 was determined as 6.4 nM. Take `CN(c1ncccn1)N(Cc1ccc(C(F)(F)F)cn1)C(=O)c1cc2c(cc1Cl)nc(N)c1cnn(C)c12` [Example 17, 4-amino-7-chloro-N',1-dimethyl-N'-(pyrimidin-2-yl)-N-((5-(trifluoromethyl)pyridin-2-yl)methyl)-1H-pyrazolo[4,3-c]quinoline-8-carbohydrazide]: the IC50 is 7 nM.

Take `CCn1ncc2c(N)nc3cc(C)c(C(=O)N4CC(C)CN4c4ncccc4F)cc3c21` (stereo not drawn) [Example 503, (4-amino-1-ethyl-7-methyl-1H-pyrazolo[4,3-c]quinolin-8-yl)(2-(3-fluoropyridin-2-yl)-4-methylpyrazolidin-1-yl)methanone]: the IC50 was 5.2 nM. For the molecule `Cc1cc2cc(C(=O)N(Cc3ccc(C(F)(F)F)cn3)N(C)c3nccc4ccccc34)ccc2nc1N` [Example 45, 2-amino-N'-(isoquinol-1-yl)-N',3-dimethyl-N-((5-(trifluoromethyl)pyridin-2-yl)methyl)quinoline-6-carbohydrazide], the IC50 was 3.1 nM. With `CC(C)c1cc2nc(N)c3cnn(C)c3c2cc1C(=O)N1CCCN1c1ccc(C(F)(F)F)cn1` [Example 500, (4-amino-7-isopropyl-1-methyl-1H-pyraz olo[4,3-c]quinolin-8-yl)(2-(5-(trifluoromethyl)pyridin-2-yl)pyrazolidin-1-yl)metha none], the IC50 was found to be 41 nM. Take `COc1cc2cc(C(=O)N(Cc3ccc(C(F)(F)F)cn3)N(C)c3ncccn3)ccc2nc1N` [Example 319, 2-amino-3-methoxy-N'-methyl-N'-(pyrimidin-2-yl)-N-((5-(trifluoromethyl)pyridin-2-yl)methyl)quinoline-6-carbohydrazide]: the IC50 was found to be 4.7 nM. On the same count and under the same terms, with `CCc1cc2nc(N)c3cnn(C)c3c2cc1C(=O)N1CCCN1c1ccc(C(F)(F)F)cn1` [Example 496, (4-amino-7-ethyl-1-methyl-1H-pyrazolo[4,3-c]quinolin-8-yl)(2-(5-(trifluoromethyl)pyridin-2-yl)pyrazolidin-1-yl)methanone] the figure was 3.4 nM. Turning to `CN(c1ncccn1)N(Cc1ccc(C(F)(F)F)cn1)C(=O)c1ccc2nc(N)cc(C3CC3)c2c1` [Example 29, 2-amino-4-cyclopropyl-N'-methyl-N'-(pyrimidin-2-yl)-N-((5-(trifluoromethyl)pyridin-2-yl)methyl)quinoline-6-carbohydrazide], the IC50 was found to be 1.6 nM. As for `Cc1cc2cc(C(=O)N(Cc3ccc(C(F)(F)F)cn3)N(C)c3ncc(P(C)(C)=O)cn3)ccc2nc1N` [Example 296, 2-amino-N'-(5-(dimethylphosphoryl)pyrimidin-2-yl)-N',3-dimethyl-N-((5-(trifluoromethyl)pyridin-2-yl)methyl)quinoline-6-carbohydrazide], the IC50 is 1.3 nM. `Cc1cc2nc(N)c3cnn(C)c3c2cc1C(=O)N1C(C)CCN1c1ncccn1` (stereo not drawn) [Example 373, (4-amino-1,7-dimethyl-1H-pyrazolo[4,3-c]quinolin-8-yl)(5-methyl-2-(pyrimidin-2-yl)pyrazolidin-1-yl)methanone]: the IC50 was 7.5 nM.

As for `Cc1cc2cc(C(=O)N(Cc3ccc(C(F)(F)F)cn3)N(C)c3c(F)cccc3C(F)(F)F)ccc2nc1N` [Example 44, 2-amino-N'-(2-fluoro-6-(trifluoromethyl)phenyl)-N',3-dimethyl-N-((5-(trifluoromethyl)pyridin-2-yl)methyl)quinoline-6-car bohydrazide], the IC50 is 1.9 nM.
